Measurements reported in patent publication US7459453B2, “Pyridazin-3(2H)-one derivatives as PDE4 inhibitors” (Laboratorios Almirall, S.A., priority 2002, dated 2008).

The compounds below were run on PDE4 (assay: PDE4 Assay Procedure ([3H]-cAMP SPA)). Conditions: 15 nM [3H]-cAMP, SPA beads, 1 hour at room temperature; compounds tested from 10 μM to 10 pM.
Format: biochemical
Experimental: Compounds to be tested were resuspended in DMSO at a stock concentration of 1 mM. The compounds were tested at different concentrations varying from 10 μM to 10 pM to calculate an IC50. These dilutions were done in 96-well plates. In some cases, plates containing diluted compounds were frozen before being assayed. In these cases, the plates were thawed at room temperature and stirred for 15 minutes.
Ten microliters of the diluted compounds were poured into a “low binding” assay plate. Eighty microliters of reaction mixture containing 50 mM Tris pH 7.5, 8.3 mM MgCl2, 1.7 mM EGTA, and 15 nM [3H]-cAMP were added to each well. The reaction was initiated by adding ten microliters of a solution containing PDE4. The plate was then incubated under stirring for 1 hour at room temperature. After incubation the reaction was stopped with 50 microliters of SPA beads, and the reaction was allowed to incubate for another 20 minutes at room temperatures before measuring radioactivity using standard instrumentation.
The reaction mixture was prepared by adding 90 ml of H2O to 10 ml of 10× assay buffer (500 mM Tris pH 7.5, 83 mM MgCl2, 17 mM EGTA), and 40 microliters 1 μCi/μL [3H]-cAMP. SPA beads solution was prepared by adding 500 mg to […] H2O for a final concentration of 20 mg/ml beads and 18 mM zinc sulphate.
Compound `CCn1nc(-c2ccccc2)c(C(C)=O)c(Nc2cccc3ccccc23)c1=O` [Example 8, 5-Acetyl-2-ethyl-4-(1-naphthylamino)-6-phenylpyridazin-3(2H)-one] has an IC50 of 2 nM. Compound `CCn1nc(-c2cccc(F)c2)c(C(C)=O)c(Nc2cccc(F)c2)c1=O` [Example 91, 5-Acetyl-2-ethyl-4-[(3-fluorophenyl)amino]-6-(3-fluorophenyl)pyridazin-3(2H)-one] has an IC50 of 5.9 nM. Work on `CCn1nc(-c2ccccc2)c(C(C)=O)c(Nc2ccc(F)c(Cl)c2)c1=O` [Example 190, 5-Acetyl-4-[(3-chloro-4-fluorophenyl)amino]-2-ethyl-6-phenylpyridazin-3(2H)-one] yielded an IC50 of 9.3 nM. For `CCn1nc(-c2ccc([S+](C)[O-])cc2)c(C(C)=O)c(Nc2ccccc2C)c1=O` (centres unmarked) [Example 31, 5-Acetyl-2-ethyl-4-[(2-methylphenyl)amino]-6-[4-(methylsulphinyl)phenyl]pyridazin-3(2H)-one], the IC50 was 20 nM. Compound `CCn1nc(-c2cccc([N+](=O)[O-])c2)c(C(C)=O)c(Nc2cccc3ccccc23)c1=O` [Example 97, 5-Acetyl-2-ethyl-4-(naphthalen-1-ylamino)-6-(3-nitrophenyl)pyridazin-3(2H)-one] has an IC50 of 0.5 nM. In the case of `CCn1nc(-c2ccccc2)c(C(C)=O)c(Nc2cccc(Cl)c2)c1=O` [Example 52, 5-Acetyl-4-[(3-chlorophenyl)amino]-2-ethyl-6-phenylpyridazin-3(2H)-one], the IC50 is reported as 12 nM. Work on `CC(=O)c1c(-c2ccccc2)nn(CC2CC2)c(=O)c1Nc1cccc(Cl)c1` [Example 46, 5-Acetyl-4-[(3-chlorophenyl)amino]-2-(cyclopropylmethyl)-6-phenylpyridazin-3(2H)-one] yielded an IC50 of 8.9 nM. For `CCn1nc(-c2ccccc2)c(C(C)=O)c(Nc2cccc(C(N)=O)c2)c1=O` [Example 232, 3-[(5-Acetyl-2-ethyl-3-oxo-6-phenyl-2,3-dihydropyridazin-4-yl)amino]benzamide], the IC50 was 13 nM. `CCn1nc(-c2ccccc2)c(C(C)=O)c(Nc2ccc(C(=O)O)cc2)c1=O` [Example 50, 4-[(5-Acetyl-2-ethyl-3-oxo-6-phenyl-2,3-dihydropyridazin-4-yl)amino]benzoic acid] gave an IC50 of 14 nM. `CCn1nc(-c2cccc(Cl)c2)c(C(C)=O)c(Nc2cccc(F)c2)c1=O` [Example 88, 5-Acetyl-6-(3-chlorophenyl)-2-ethyl-4-[(3-fluorophenyl)amino]pyridazin-3(2H)-one] showed an IC50 of 6.1 nM. For `CCn1nc(-c2cccc(Cl)c2)c(C(C)=O)c(Nc2ccc(C(=O)O)cc2)c1=O` [Example 86, 4-[5-Acetyl-6-(3-chlorophenyl)-2-ethyl-3-oxo-2,3-dihydropyridazin-4-ylamino]benzoic acid], the IC50 was 14 nM. For `CCn1nc(-c2ccc(SC)cc2)c(C(C)=O)c(Nc2ccc(C(=O)O)cc2)c1=O` [Example 23, 4-({5-Acetyl-2-ethyl-6-[4-(methylthio)phenyl]-3-oxo-2,3-dihydropyridazin-4-yl}amino)benzoic acid], the IC50 was 9.5 nM. In the case of `CCn1nc(-c2ccccc2)c(C(=O)OCc2ccccc2)c(Nc2cccc(Cl)c2)c1=O` [Example 274, Benzyl 5-[(3-chlorophenyl)amino]-1-ethyl-6-oxo-3-phenyl-1,6-dihydropyridazine-4-carboxylate], the IC50 is reported as 5.5 nM. `CCn1nc(-c2ccccc2)c(C(C)=O)c(Nc2ccccc2Cl)c1=O` [Example 13, 5-Acetyl-4-[(2-chlorophenyl)amino]-2-ethyl-6-phenylpyridazin-3(2H)-one] showed an IC50 of 9.3 nM. In the case of `CC(=O)c1c(-c2ccccc2)nn(CC2CC2)c(=O)c1Nc1cc(F)cc(F)c1` [Example 109, 5-Acetyl-2-cyclopropylmethyl-4-(3,5-difluoro-phenylamino)-6-phenyl-2H-pyridazin-3-one], the IC50 is reported as 0.26 nM. `CCn1nc(-c2ccccc2)c(C(C)=O)c(Nc2ccc(C#N)cc2)c1=O` [Example 231, 4-[(5-Acetyl-2-ethyl-3-oxo-6-phenyl-2,3-dihydropyridazin-4-yl)amino]benzonitrile] showed an IC50 of 20 nM. `CCn1nc(-c2ccccc2)c(C(C)=O)c(Nc2cc(F)c(F)c(F)c2)c1=O` [Example 264, 5-Acetyl-2-ethyl-6-phenyl-4-[(3,4,5-trifluorophenyl)amino]pyridazin-3(2H)-one] was tested, and the IC50 was 11 nM. `CCn1nc(-c2cccc(F)c2)c(C(C)=O)c(Nc2cccc(Cl)c2)c1=O` [Example 92, 5-Acetyl-4-[(3-chlorophenyl)amino]-2-ethyl-6-(3-fluorophenyl)pyridazin-3(2H)-one] gave an IC50 of 8.7 nM. `CC(=O)c1c(-c2ccccc2)nn(CC2CC2)c(=O)c1Nc1cccc(F)c1` [Example 45, 5-Acetyl-2-(cyclopropylmethyl)-4-[(3-fluorophenyl)amino]-6-phenylpyridazin-3(2H)-one] was tested, and the IC50 was 7.8 nM. `CC(=O)c1c(-c2ccccc2)nn(C)c(=O)c1Nc1cc(F)cc(F)c1` [Example 39, 5-Acetyl-4-[(3,5-difluorophenyl)amino]-2-methyl-6-phenylpyridazin-3(2H)-one] gave an IC50 of 16 nM. `CCn1nc(-c2cccc(F)c2)c(C(C)=O)c(Nc2ccc(CO)cc2)c1=O` [Example 176, 5-Acetyl-2-ethyl-6-(3-fluorophenyl)-4-{[4-(hydroxymethyl)phenyl]amino}pyridazin-3(2H)-one] showed an IC50 of 19 nM. `CCn1nc(-c2ccc(F)cc2)c(C(C)=O)c(Nc2ccc(CO)cc2)c1=O` [Example 181, 5-Acetyl-2-ethyl-6-(4-fluorophenyl)-4-{[4-(hydroxymethyl)phenyl]amino}pyridazin-3(2H)-one] showed an IC50 of 25 nM. `CCn1nc(-c2ccccc2)c(C(=O)CCc2ccccc2)c(Nc2cccc(Cl)c2)c1=O` [Example 120, 4-[(3-Chlorophenyl)amino]-2-ethyl-6-phenyl-5-(3-phenylpropanoyl)pyridazin-3(2H)-one] was tested, and the IC50 was 7.1 nM. `CCn1nc(-c2ccccc2)c(C(C)=O)c(Nc2c(F)cc(F)cc2F)c1=O` [Example 263, 5-Acetyl-2-ethyl-6-phenyl-4-[(2,4,6-trifluorophenyl)amino]pyridazin-3(2H)-one] gave an IC50 of 15 nM. `CCn1nc(-c2ccccc2)c(C(C)=O)c(Nc2cccc(F)c2)c1=O` [Example 1, 5-Acetyl-2-ethyl-4-[(3-fluorophenyl)amino]-6-phenylpyridazin-3(2H)-one] was tested, and the IC50 was 7.7 nM. `CCn1nc(-c2ccccc2)c(C(C)=O)c(Nc2cccc(C#N)c2)c1=O` [Example 72, 3-[(5-Acetyl-2-ethyl-3-oxo-6-phenyl-2,3-dihydropyridazin-4-yl)amino]benzonitrile] gave an IC50 of 6 nM.
